Measured values as given in patent US5672603A, “Apoptosis regulating composition” (Otsuka Pharmaceutical Co., Ltd., priority 1991, dated 1997).

Legend:
[1] = system: human adult T cell leukemic cells (5S); assay: ATL-infected cell growth inhibition test: ATLV-infected cells; assay type: cell-based; settings: for Number of ATLV-infected cells: 4 days, control 6.5
Protocol: Human adult T cell leukemia cells (5S) were used to prepare a suspension of 1×10^5 cells/ml in RPMI-1640 medium (Gibco) supplemented 10% fetal calf serum (FCS, Gibco) for use as ATL virus-infected cells.
Compound 1 was dissolved in hydrochloric acid, diluted with the same medium as above, neutralized with 2N NaOH and adjusted to concentrations of 1 μg/ml, 10 μg/ml and 30 μg/ml.
The cells prepared in (a) and (b) above were respectively placed in wells of a 24-well culture plate (Nunc), followed by addition of the test compound prepared in (c) (final concentration: 1 μg/ml, 10 μg/ml or 30 μg/ml), and cultured at 37° C. in a 5% carbon dioxide incubator for 4 days. As a control, the medium without addition of the test compound was used. After completion of incubation, the cell suspension in each well was taken for determination of viable cells.

[2] = system: Human transformed normal T cells (MT-4), HIV-infected; assay: Antiretrovirus activity test: viable HIV-infected MT-4 cells; assay type: cell-based; settings: for Number of HIV-infected cells: 3 days, control 105
Protocol: Human transformed normal T cells (MT-4) [Nagumo, T. and Hoshino, H., Jpn. J. Cancer Res. 79, 9-11 (1988)] were used to prepare a suspension of 2×10^5 cells/ml in RPMI-1640 medium (Gibco) supplemented 10% FCS (Gibco).
Compound 1 was dissolved in hydrochloric acid, diluted in the same medium as above, neutralized with 2N NaOH and adjusted to concentrations of 1 μg/ml, 10 μg/ml, 30 μg/ml and 100 μg/ml.
The cells prepared in (a) above and the test compound (final concentration: 1 μg/ml, 10 μg/ml, 30 μg/ml or 100 μg/ml) prepared in (b) above were placed in the wells of a 12-well culture plate (Costar). Then, 50 μl/well of HIV suspension was added to infect the cells in each well, followed by 3-day incubation at 37° C. in a 5% carbon dioxide incubator. As a control, the medium without addition of the test compound was used. After completion of incubation, the cell suspension in each well was taken and viable cells were counted.

CMK cells = assay: Apoptosis-regulating effect: DNA fragmentation in CMK cells (agarose gel electrophoresis); assay type: cell-based, human; settings: 30 μg/ml; 2 or 4 days
Protocol: CMK cells were used to prepare a suspension of 1×10^5 cells/ml in RPMI-1640 medium supplemented with fetal calf serum and Compound 1 was added at a concentration of 30 μg/ml. The mixture was incubated in a culture flask at 37° C. for 2 or 4 days. As a control, the medium to which the solvent alone was added was similarly incubated.
Cells were harvested by centrifugation at 4° C. for 10 minutes at 200×G. The pellet was dissolved in a hypotonic buffer (10 mM Tris-HCl, 1 mM EDTA and 0.2% Triton 100, pH 7.5) and the solution was centrifuged at 4° C. for 10 minutes at 13000×G. The supernatant was collected and allowed to stand in 50% isopropyl alcohol -0.5M NaCl at -20° C. overnight. The resultant precipitate was centrifuged at 4° C. for 10 minutes at 13000×G, the supernatant was discarded, and the sediment was dried. The dry sediment was resuspended in 10 mMTris-HCl-1 mM EDTA (pH 7.4). To the supernatant was added RNase at a final concentration of 0.1 mg/ml and the mixture was incubated at 37° C. for 1 hour.
To a sample corresponding to the cell count of 1×10^6 was added 1/5 volume of a loading buffer containing 15 mM EDTA, 2% SDS, 50% glycerol and 0.05% bromphenol blue, and the mixture was incubated at 65° C. for 10 minutes.
The culture sample thus obtained was subjected to electrophoresis in 1.5% agarose gel at 100 V for 100 minutes. The DNA was stained with ethidium bromide. […]

[3] = system: Human promyelocytic leukemia cells (HL-60); assay: Cancer cell growth inhibition, HL-60 (long-term culture, trypan blue viable count); assay type: cell-based; settings: control 100
Description: The human promyelocytic leukemia cell line HL-60 is a human leukemia cell line established by Robert Gallo et al. and typical properties thereof are described in the literature [Gallo, R. C. et al., Blood, 54, 713 (1979)]. It is available from the American Type Culture Collection (ATCC) under the accession number ATCC No. CCL-240.
The concentration of HL-60 cells was adjusted to 1×10^5 cells/ml using RPMI-1640 medium (GIBCO) supplemented with 10% of FCS (fetal calf serum; GIBCO).
(§1) Test compound 1 was dissolved in acetic acid, followed by dilution with the same medium as used above in (1) and neutralization with 2N NaOH to give final concentrations of 100 μg/ml, 10 μg/ml and 1.0 μg/ml.
(§2) a) The test compound solutions prepared as described above under (3) were added to the HL-60 cell suspension prepared as described above under (1) to final concentrations of 10 μg/ml and 1.0 μg/ml. Using 12-well culture plates (Costar), cultivation was conducted in a 5% carbon dioxide gas incubator maintained at 37° C. for 3 to 4 days. The test compound-free medium was used as a control. Thereafter, the cell suspension in each well was sampled and mixed with 0.2% trypan blue-containing phosphate buffer, and unstained viable cells were counted under a microscope. Based on the counting result, the viable cell concentration was readjusted to 1×10^5 cells/ml, and cultivation was continued under the same conditions.

M12 melanoma cells = assay: M12 melanoma cell growth inhibition in nude mice; assay type: in vivo, Balb/c nude mice; settings: 10 mg/kg daily oral, day 25 to day 55; FIG. 2; * p<0.05
Protocol: This study was performed in groups of 10 Balb/c nude mice.
On the first day of the experiment (day 0), 2×10^6 M12 melanoma cells were transplanted into mice in the test group. When the tumor volume reached 100 mm^3, the test Compound 1 was administered orally in doses of 10 mg/kg daily to the mice. This treatment was carried out 30 times from day 25 to day 55. The tumor diameter was measured using calipers everyday after transplantation of tumor cells. The tumor volume was calculated according to the following formula.
Tumor volume (mm^3)=(long diameter)×(short diameter)^2 ×1/2

[4] = system: Human stomach cancer cells (KATO-III); assay: Cancer cell growth inhibition, KATO-III; assay type: cell-based; settings: control 100
Protocol: The cell concentration was adjusted to 1×10^5 cells/ml using the same medium as used above in (1).
as §1, §2
KATO-III cells prepared as described above under (2) were cultivated in the same manner.

COc1ccc(C(=O)N2CCN(c3ccc4c(c3)CCC(=O)N4)CC2)cc1OC [Compound 1, 6-[4-(3,4-Dimethoxybenzoyl)-1-piperazinyl]-3,4-dihydrocarbostyril]
Number of ATLV-infected cells ([1]; 1 μg/ml): 0.6 ×10^5 | Number of ATLV-infected cells ([1]; 10 μg/ml): 0.2 ×10^5 | Number of ATLV-infected cells ([1]; 30 μg/ml): 3.3 ×10^5 | Growth inhibition of ATLV-infected cells (in words) ([1]; at least 1 μg/ml): potent inhibitory effect on the growth of ATLV-infected cells | Inhibition of HIV-infected cell growth (in words) [2]: inhibits cell growth | Number of HIV-infected cells ([2]; 1 μg/ml): 100 ×10^4 | Number of HIV-infected cells ([2]; 10 μg/ml): 88 ×10^4 | Number of HIV-infected cells ([2]; 30 μg/ml): 78 ×10^4 | Number of HIV-infected cells ([2]; 100 μg/ml): 85 ×10^4 | Apoptosis (DNA fragmentation) (CMK cells): promotes apoptosis of CMK cells | activity at 1 µg/mL ([3]; HL-60, 648 h, on day 27, 1.0 μg/ml): 76 ± 3.8% | activity at 10 µg/mL ([3]; HL-60, 648 h, on day 27, 10 μg/ml): 54 ± 2.6% | activity at 1 µg/mL ([3]; HL-60, 792 h, on day 33, 1.0 μg/ml): 0% | activity at 10 µg/mL ([3]; HL-60, 792 h, on day 33, 10 μg/ml): 0% | Growth of M12 melanoma cells (tumor volume) (M12 melanoma cells): significantly inhibits growth of M12 melanoma cells | activity at 1 µg/mL ([4]; 576 h, on day 24, 1.0 μg/ml): 88 ± 2.3% | activity at 10 µg/mL ([4]; 576 h, on day 24, 10 μg/ml): 61 ± 1.5% | activity at 1 µg/mL ([4]; 792 h, on day 33, 1.0 μg/ml): 0% | activity at 10 µg/mL ([4]; 792 h, on day 33, 10 μg/ml): 0%
